What was measured:
Leishmania donovani [1] = experiment: Antileishmanial activity against axenic amastigote Leishmania donovani MHOM/SD/1962/1S-Cl2d assessed as inhibition of parasite growth after 24 hrs at 50 uM by alamarBlue assay; type: functional
Leishmania donovani [2] = experiment: Antileishmanial activity against axenic amastigote Leishmania donovani MHOM/SD/1962/1S-Cl2d assessed as inhibition of parasite growth after 24 hrs at 5 uM by alamarBlue assay; type: functional
Leishmania donovani [3] = experiment: Antileishmanial activity against axenic amastigote Leishmania donovani MHOM/SD/1962/1S-Cl2d assessed as inhibition of parasite growth after 24 hrs at 15 uM by alamarBlue assay; type: functional
Leishmania donovani [4] = experiment: Antileishmanial activity against Leishmania donovani MHOM/SD/1962/1S-Cl2d infected THP1 cells assessed as inhibition of intracellular […] amastigote after 48 hrs at 50 uM by Bright-Glo luciferase assay; type: functional, organism-based; conditions: THP-1, 48 h
[5] = Cytotoxicity against mouse NIH/3T3 cells assessed as viability at 15 uM after 48 hrs by alamarBlue assay; type: cell-based, NIH3T3; conditions: read-out: Activity
Leishmania donovani [6] = experiment: Antileishmanial activity against Leishmania donovani MHOM/SD/1962/1S-Cl2d infected THP1 cells assessed as inhibition of intracellular […] amastigote at 5 uM after 48 hrs at 50 uM by Bright-Glo luciferase assay; type: functional, THP-1
[7] = Cytotoxicity against mouse NIH/3T3 cells assessed as viability after 48 hrs by alamarBlue assay; type: cell-based; conditions: NIH3T3, 48 h

IC50 (Leishmania donovani [4]) [µM]	Compound	inhibition at 50 µM (Leishmania donovani [1]) [%]	inhibition at 5 µM (Leishmania donovani [2]) [%]	inhibition at 15 µM (Leishmania donovani [3]) [%]	viability at 48 h, 15 µM [5] [%]	inhibition (INH) (Leishmania donovani [6]) [%]	IC50 [7] [µM]
–	CC(=O)Nc1cccc(-c2nc3ccccc3[nH]2)c1	56	20	21	–	–	–
–	Cn1cccc1C(=O)Nc1cccc(-c2nc3ccccc3[nH]2)c1	33	–	–	–	–	–
–	O=C(Nc1cccc(-c2nc3ccccc3[nH]2)c1)c1cscn1	45	–	–	–	–	–
–	Cc1cccc(C(=O)Nc2cccc(-c3nc4ccccc4[nH]3)c2)c1	59	26	52	–	–	–
–	O=C(Nc1cccc(-c2nc3ccccc3[nH]2)c1)c1cccc(C(F)(F)F)c1	83	17	68	–	–	–
–	O=C(Nc1cccc(-c2nc3ccccc3[nH]2)c1)c1cccc(Cl)c1	57	26	60	–	–	–
–	COc1cccc(C(=O)Nc2cccc(-c3nc4ccccc4[nH]3)c2)c1	49	–	–	–	–	–
–	COC(=O)c1cccc(C(=O)Nc2cccc(-c3nc4ccccc4[nH]3)c2)c1	100	18	74	–	–	–
–	Cc1ccccc1C(=O)Nc1cccc(-c2nc3ccccc3[nH]2)c1	55	22	47	–	–	–
–	O=C(Nc1cccc(-c2nc3ccccc3[nH]2)c1)c1ccccc1C(F)(F)F	82	22	73	–	–	–
–	COc1ccccc1C(=O)Nc1cccc(-c2nc3ccccc3[nH]2)c1	75	23	27	–	–	–
–	CC(C)(C)C(=O)Nc1cccc(-c2nc3ccccc3[nH]2)c1	54	27	44	–	–	–
8.8	O=C(Nc1cccc(-c2nc3ccccc3[nH]2)c1)C1CCCCC1	68	41	61	23.8	19.8	22.2
10.5	Cc1ccc2[nH]c(-c3cccc(NC(=O)c4cccs4)c3)nc2c1	77	36	50	14.1	4.1	16.7
–	O=C(Nc1cccc(-c2nc3cc(Cl)ccc3[nH]2)c1)c1cccs1	80	11	57	–	–	–
17.8	Cc1cccc2[nH]c(-c3cccc(NC(=O)c4cccs4)c3)nc12	83	32	56	5.3	46.4	> 300
–	Cc1c(NC(=O)c2cccs2)cccc1-c1nc2ccccc2[nH]1	31	–	–	–	–	–
–	COc1ccc(-c2nc3ccccc3[nH]2)cc1NC(=O)c1cccs1	38	–	–	–	–	–
22.1	Cn1c(-c2cccc(NC(=O)c3cccs3)c2)nc2ccccc21	74	30	56	-12.9	27.7	61.3

IC50 (Leishmania donovani [4]) [µM]	Compound	inhibition at 50 µM (Leishmania donovani [1]) [%]	inhibition at 5 µM (Leishmania donovani [2]) [%]	inhibition at 15 µM (Leishmania donovani [3]) [%]	viability at 48 h, 15 µM [5] [%]	inhibition (INH) (Leishmania donovani [6]) [%]	IC50 [7] [µM]
–	O=S(=O)(Nc1cccc(-c2nc3ccccc3[nH]2)c1)c1ccccc1	52	0	30	–	–	–
–	O=C(Nc1cccc(-c2nc3ccccc3o2)c1)c1cccs1	34	–	–	–	–	–
–	O=C(Nc1ccc(-c2nc3ccccc3[nH]2)cc1)c1cccs1	22	–	–	–	–	–
–	O=C(Nc1cccc(-c2nc3ccccc3[nH]2)c1)c1ccsc1	83	17	67	–	–	–
–	O=C(Cc1cccs1)Nc1cccc(-c2nc3ccccc3[nH]2)c1	49	–	–	–	–	–
–	O=C(Nc1cccc(-c2nc3ccccc3[nH]2)c1)c1ccco1	43	–	–	–	–	–
–	O=C(Nc1cccc(-c2nc3ccccc3[nH]2)c1)c1ccoc1	80	19	39	–	–	–
–	O=C(Nc1cccc(-c2nc3ccccc3[nH]2)c1)c1ccccn1	57	19	35	–	–	–
–	O=C(Nc1cccc(-c2nc3ccccc3[nH]2)c1)c1ccccc1F	74	24	37	–	–	–
–	O=C(Nc1cccc(-c2nc3ccccc3[nH]2)c1)c1ccccc1	56	17	43	–	–	–
–	CCCCC(=O)Nc1cccc(-c2nc3ccccc3[nH]2)c1	82	15	67	–	–	–
–	O=C(Nc1cccc(-c2nc3ccccc3[nH]2)c1)C1CCCC1	87	22	76	–	–	–
–	O=C(Nc1ccccc1)Nc1cccc(-c2nc3ccccc3[nH]2)c1	84	13	73	–	–	–
–	O=C(Nc1cccc(-c2nc3ccccc3[nH]2)c1)NC1CCCCC1	94	24	90	–	–	–
–	O=C(Nc1ccccc1)Nc1ccccc1-c1nc2ccccc2[nH]1	67	12	16	–	–	–
7.6	O=C(Nc1ccccc1-c1nc2ccccc2[nH]1)NC1CCCCC1	88	36	65	-4.4	22.2	42.2
–	O=C(Nc1ccccc1)c1cccc(-c2nc3ccccc3[nH]2)c1	87	8	57	–	–	–
–	O=C(Nc1ccccc1-c1nc2ccccc2[nH]1)c1cccs1	51	26	26	–	–	–
–	O=C(Nc1cccc(-c2cc3ccccc3[nH]2)c1)c1cccs1	86	16	33	–	–	–

IC50 (Leishmania donovani [4]) [µM]	Compound	inhibition at 50 µM (Leishmania donovani [1]) [%]	inhibition at 5 µM (Leishmania donovani [2]) [%]	inhibition at 15 µM (Leishmania donovani [3]) [%]	viability at 48 h, 15 µM [5] [%]	inhibition (INH) (Leishmania donovani [6]) [%]	IC50 [7] [µM]
–	CCn1c(-c2cccc(NC(=O)c3cccs3)c2)nc2ccccc21	87	24	81	–	–	–
–	CCCn1c(-c2cccc(NC(=O)c3cccs3)c2)nc2ccccc21	86	25	70	–	–	–
–	CN(C(=O)c1cccs1)c1cccc(-c2nc3ccccc3[nH]2)c1	40	3	21	–	–	–
–	O=C(Cc1cccs1)Nc1cccc(-c2ncc[nH]2)c1	0	–	–	–	–	–
–	CCc1ccccc1C(=O)Nc1cccc(-c2nc3ccccc3[nH]2)c1	88	21	52	–	–	–
–	O=C(Nc1cccc(-c2nc3ccccc3[nH]2)c1)c1ccccc1Cl	79	23	55	–	–	–
–	O=C(O)c1cccc(C(=O)Nc2cccc(-c3nc4ccccc4[nH]3)c2)c1	0	–	–	–	–	–
–	COc1ccc(C(=O)Nc2cccc(-c3nc4ccccc4[nH]3)c2)cc1	64	35	52	54.1	–	–
23.4	O=C(Nc1cccc(-c2nc3ccccc3[nH]2)c1)c1ccc(F)cc1	69	32	50	-11.9	16	15.4
–	O=C(Nc1cccc(-c2nc3ccccc3[nH]2)c1)c1ccc(Cl)cc1	63	27	41	–	–	–
–	O=C(Nc1cccc(-c2nc3ccccc3[nH]2)c1)c1ccc(-c2ccccc2)cc1	96	41	80	88.7	–	–
–	Cc1cc(C)cc(C(=O)Nc2cccc(-c3nc4ccccc4[nH]3)c2)c1	88	22	56	–	–	–
–	Cc1ccc(C)c(C(=O)Nc2cccc(-c3nc4ccccc4[nH]3)c2)c1	78	15	28	–	–	–
–	COc1cc(OC)cc(C(=O)Nc2cccc(-c3nc4ccccc4[nH]3)c2)c1	83	32	58	–	–	–
–	O=C(Nc1cccc(-c2nc3ccccc3[nH]2)c1)c1cc(Cl)cc(Cl)c1	97	28	44	–	–	–
–	O=C(Nc1cccc(-c2nc3ccccc3[nH]2)c1)c1cc(Br)cc(Br)c1	72	29	55	–	–	–
25.1	O=C(Nc1cccc(-c2nc3ccccc3[nH]2)c1)c1cccs1	66	39	48	-0.6	21.7	15
–	Cc1ccc(C(=O)Nc2cccc(-c3nc4ccccc4[nH]3)c2)cc1	82	23	71	–	–	–

Source: ChEMBL document CHEMBL3400064, “Synthesis and biological evaluation of 2-arylbenzimidazoles targeting Leishmania donovani” (Bioorg Med Chem Lett, 2015)
